Data from US9108944B2, “Androgen receptor modulators and uses thereof” (ARAGON PHARMACEUTICALS, INC., priority 2010, dated 2015).

Experiments:
[1] = molecular target: T1, AR-VP16 (Homo sapiens, UniProt P10275); assay: AR-VP16 DNA Binding Assay, agonist mode (HepG2 cells); format: cell-based; conditions: Emax >20x DMSO control = agonist
T1 sequence (P10275 560-920 limits assumed): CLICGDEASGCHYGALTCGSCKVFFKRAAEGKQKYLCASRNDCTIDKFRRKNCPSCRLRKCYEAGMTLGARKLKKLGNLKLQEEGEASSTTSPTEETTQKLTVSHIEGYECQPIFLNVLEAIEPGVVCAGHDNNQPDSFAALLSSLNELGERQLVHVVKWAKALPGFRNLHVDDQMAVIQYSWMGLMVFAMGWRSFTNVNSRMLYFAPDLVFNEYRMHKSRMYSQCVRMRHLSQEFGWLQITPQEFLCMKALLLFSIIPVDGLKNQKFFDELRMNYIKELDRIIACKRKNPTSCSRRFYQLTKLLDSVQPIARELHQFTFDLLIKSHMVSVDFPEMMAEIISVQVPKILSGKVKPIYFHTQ

[2] = molecular target: T1, AR-VP16; assay: AR-VP16 DNA Binding Assay, antagonist mode (HepG2 cells, 0.1 nM R1881); format: cell-based
In short: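 HepG2 cells transiently transfected with AR-VP16 (Lipofectin), incubated overnight, then treated with compound in RPMI with charcoal-stripped serum. Antagonist mode adds R1881 at 0.1 nM final. Cells lysed after 48 h incubation for read-out.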

Structure (SMILES) | ARVP16 DNA Binding Assay (Agonist mode): Agonist? [1] | IC50 [2] [µM]
N#Cc1ncc(N2C(=O)C3(CCC3)N(c3ccc(OC4CCNCC4)cc3)C2=S)cc1C(F)(F)F [Compound 211, 5-(8-Oxo-5-(4-(piperidin-4-yloxy)phenyl)-6-thioxo-5,7-diazaspiro[3.4]octan-7-yl)-3-(trifluoromethyl)picolinonitrile] | No (Agonist defined as a compound whose Emax in the ARVP16 DNA Binding Assay (Agonist mode) is >20x DMSO control) | < 1
CCC(=O)N1CCC(Oc2ccc(N3C(=S)N(c4cnc(C#N)c(C(F)(F)F)c4)C(=O)C34CCC4)cc2)CC1 [Compound 212, 5-(8-Oxo-5-(4-((1-propionylpiperidin-4-yl)oxy)phenyl)-6-thioxo-5,7-diazaspiro[3.4]octan-7-yl)-3-(trifluoromethyl)picolinonitrile] | Yes (Agonist defined as a compound whose Emax in the ARVP16 DNA Binding Assay (Agonist mode) is >20x DMSO control) | < 1
CC(C)C(=O)N1CCC(Oc2ccc(N3C(=S)N(c4cnc(C#N)c(C(F)(F)F)c4)C(=O)C34CCC4)cc2)CC1 [Compound 213, 5-(5-(4-((1-isobutyrylpiperidin-4-yl)oxy)phenyl)-8-oxo-6-thioxo-5,7-diazaspiro[3.4]octan-7-yl)-3-(trifluoromethyl)picolinonitrile] | Yes (Agonist defined as a compound whose Emax in the ARVP16 DNA Binding Assay (Agonist mode) is >20x DMSO control) | < 1
CCOC(=O)N1CCC(Oc2ccc(N3C(=S)N(c4cnc(C#N)c(C(F)(F)F)c4)C(=O)C34CCC4)cc2)CC1 [Compound 214, ethyl 4-(4-(7-(6-cyano-5-(trifluoromethyl)pyridin-3-yl)-8-oxo-6-thioxo-5,7-diazaspiro[3.4]octan-5-yl)phenoxy)piperidine-1-carboxylate] | Yes (Agonist defined as a compound whose Emax in the ARVP16 DNA Binding Assay (Agonist mode) is >20x DMSO control) | < 1
CC(=O)N1CCC(Oc2ccc(N3C(=S)N(c4cnc(C#N)c(C)c4)C(=O)C34CCC4)cc2)CC1 [Compound 215, 5-(5-(4-((1-acetylpiperidin-4-yl)oxy)phenyl)-8-oxo-6-thioxo-5,7-diazaspiro[3.4]octan-7-yl)-3-methylpicolinonitrile] | Yes (Agonist defined as a compound whose Emax in the ARVP16 DNA Binding Assay (Agonist mode) is >20x DMSO control) | < 1
CCN1CCC(Oc2ccc(N3C(=S)N(c4cnc(C#N)c(C)c4)C(=O)C34CCC4)cc2)CC1 [Compound 216, 5-(5-(4-((1-Ethylpiperidin-4-yl)oxy)phenyl)-8-oxo-6-thioxo-5,7-diazaspiro[3.4]octan-7-yl)-3-methylpicolinonitrile] | No (Agonist defined as a compound whose Emax in the ARVP16 DNA Binding Assay (Agonist mode) is >20x DMSO control) | > 1
Cc1cc(N2C(=O)C3(CCC3)N(c3ccc(OC4CCN(CCO)CC4)cc3)C2=S)cnc1C#N [Compound 217, 5-(5-(4-((1-(2-Hydroxyethyl)piperidin-4-yl)oxy)phenyl)-8-oxo-6-thioxo-5,7-diazaspiro[3.4]octan-7-yl)-3-methylpicolinonitrile] | No (Agonist defined as a compound whose Emax in the ARVP16 DNA Binding Assay (Agonist mode) is >20x DMSO control) | < 1
CS(=O)(=O)N1CCC(Oc2ccc(N3C(=S)N(c4cnc(C#N)c(C(F)(F)F)c4)C(=O)C34CCC4)cc2)CC1 [Compound 219, 5-(5-(4-((1-(methylsulfonyl)piperidin-4-yl)oxy)phenyl)-8-oxo-6-thioxo-5,7-diazaspiro[3.4]octan-7-yl)-3-(trifluoromethyl)picolinonitrile] | Yes (Agonist defined as a compound whose Emax in the ARVP16 DNA Binding Assay (Agonist mode) is >20x DMSO control) | < 1
CC(C)N1CCC(Oc2ccc(N3C(=S)N(c4cnc(C#N)c(C(F)(F)F)c4)C(=O)C34CCC4)cc2)CC1 [Compound 220, 5-(5-(4-((1-Isopropylpiperidin-4-yl)oxy)phenyl)-8-oxo-6-thioxo-5,7-diazaspiro[3.4]octan-7-yl)-3-(trifluoromethyl)picolinonitrile] | No (Agonist defined as a compound whose Emax in the ARVP16 DNA Binding Assay (Agonist mode) is >20x DMSO control) | < 1
CCOC(=O)CN1CCC(Oc2ccc(N3C(=S)N(c4cnc(C#N)c(C(F)(F)F)c4)C(=O)C34CCC4)cc2)CC1 [Compound 221, Ethyl 2-(4-(4-(7-(6-cyano-5-(trifluoromethyl)pyridin-3-yl)-8-oxo-6-thioxo-5,7-diazaspiro[3.4]octan-5-yl)phenoxy)piperidin-1-yl)acetate] | No (Agonist defined as a compound whose Emax in the ARVP16 DNA Binding Assay (Agonist mode) is >20x DMSO control) | > 1
N#Cc1ncc(N2C(=O)C3(CCC3)N(c3ccc(OC4CCN(C(N)=O)CC4)cc3)C2=S)cc1C(F)(F)F [Compound 222, 4-(4-(7-(6-Cyano-5-(trifluoromethyl)pyridin-3-yl)-8-oxo-6-thioxo-5,7-diazaspiro[3.4]octan-5-yl)phenoxy)piperidine-1-carboxamide] | Yes (Agonist defined as a compound whose Emax in the ARVP16 DNA Binding Assay (Agonist mode) is >20x DMSO control) | < 1
Cc1cc(N2C(=O)C3(CCC3)N(c3ccc(OCCO)cc3)C2=S)cnc1C#N [Compound 223, 5-(5-(4-(2-Hydroxyethoxy)phenyl)-8-oxo-6-thioxo-5,7-diazaspiro[3.4]octan-7-yl)-3-methylpicolinonitrile] | No (Agonist defined as a compound whose Emax in the ARVP16 DNA Binding Assay (Agonist mode) is >20x DMSO control) | < 1
N#Cc1ncc(N2C(=O)C3(CCC3)N(c3ccc(C(=O)O)c(F)c3)C2=S)cc1C(F)(F)F [Compound 224, 4-(7-(6-Cyano-5-(trifluoromethyl)pyridin-3-yl)-8-oxo-6-thioxo-5,7-diazaspiro[3.4]octan-5-yl)-2-fluorobenzoic acid] | No (Agonist defined as a compound whose Emax in the ARVP16 DNA Binding Assay (Agonist mode) is >20x DMSO control) | > 1
Cc1cc(N2C(=O)C3(CCC3)N(c3ccc(C(=O)O)c(F)c3)C2=S)cnc1C#N [Compound 225, 4-(7-(6-Cyano-5-methylpyridin-3-yl)-8-oxo-6-thioxo-5,7-diazaspiro[3.4]octan-5-yl)-2-fluorobenzoic acid] | No (Agonist defined as a compound whose Emax in the ARVP16 DNA Binding Assay (Agonist mode) is >20x DMSO control) | < 1
N#Cc1ncc(N2C(=O)C3(CCC3)N(c3ccc(F)c(C(=O)O)c3)C2=S)cc1C(F)(F)F [Compound 226, 5-(7-(6-Cyano-5-(trifluoromethyl)pyridin-3-yl)-8-oxo-6-thioxo-5,7-diazaspiro[3.4]octan-5-yl)-2-fluorobenzoic acid] | No (Agonist defined as a compound whose Emax in the ARVP16 DNA Binding Assay (Agonist mode) is >20x DMSO control) | > 1
N#Cc1ncc(N2C(=O)C3(CCC3)N(c3ccc(CCCC(=O)O)cc3)C2=S)cc1C(F)(F)F [Compound 227, 4-(4-(7-(6-cyano-5-(trifluoromethyl)pyridin-3-yl)-8-oxo-6-thioxo-5,7-diazaspiro[3.4]octan-5-yl)phenyl)butanoic acid] | No (Agonist defined as a compound whose Emax in the ARVP16 DNA Binding Assay (Agonist mode) is >20x DMSO control) | > 1
N#Cc1ncc(N2C(=O)C3(CCC3)N(c3ccc(OCC(=O)O)c(F)c3)C2=S)cc1C(F)(F)F [Compound 228, 2-(4-(7-(6-Cyano-5-(trifluoromethyl)pyridin-3-yl)-8-oxo-6-thioxo-5,7-diazaspiro[3.4]octan-5-yl)-2-fluorophenoxy)acetic acid] | No (Agonist defined as a compound whose Emax in the ARVP16 DNA Binding Assay (Agonist mode) is >20x DMSO control) | > 1
NC(=O)c1ncc(N2C(=O)C3(CCC3)N(c3ccc(F)c(C(=O)O)c3)C2=S)cc1C(F)(F)F [Compound 229, 5-(7-(6-Carbamoyl-5-(trifluoromethyl)pyridin-3-yl)-8-oxo-6-thioxo-5,7-diazaspiro[3.4]octan-5-yl)-2-fluorobenzoic acid] | No (Agonist defined as a compound whose Emax in the ARVP16 DNA Binding Assay (Agonist mode) is >20x DMSO control) | < 1
N#Cc1ncc(N2C(=O)C3(CCC3)N(c3ccc(C(N)=O)c(F)c3)C2=S)cc1C(F)(F)F [Compound 231, 4-(7-(6-Cyano-5-(trifluoromethyl)pyridin-3-yl)-8-oxo-6-thioxo-5,7-diazaspiro[3.4]octan-5-yl)-2-fluorobenzamide] | No (Agonist defined as a compound whose Emax in the ARVP16 DNA Binding Assay (Agonist mode) is >20x DMSO control) | < 1
Cc1cc(N2C(=O)C3(CCC3)N(c3ccc(C(N)=O)c(F)c3)C2=S)cnc1C#N [Compound 232, 4-(7-(6-Cyano-5-methylpyridin-3-yl)-8-oxo-6-thioxo-5,7-diazaspiro[3.4]octan-5-yl)-2-fluorobenzamide] | No (Agonist defined as a compound whose Emax in the ARVP16 DNA Binding Assay (Agonist mode) is >20x DMSO control) | < 1
